The text below walks through data of patent publication US4348388A, “11-Amino-11-deoxydaunorubicin and analogs” (G.D. Searle & Co., priority 1980, dated 1982).

In series [1] the test system is L-1210 leukemia. Put plainly: Antineoplastic activity against L-1210 leukemia (single i.v. dose, survival vs control mice). The class given is in vivo, BDF1 male mice. Conditions: single i.v. dose 24 hours after i.v. implant of 10^5 L-1210 cells; at optimum dose (Adriamycin 33.6, Ex. XII 27, 4-Demethoxydaunorubicin 4.5 μmoles/kg); ten mice per group. On the procedure: The antineoplastic activity of the compounds of this invention was first established against L-1210 leukemia. The relative activities against the L-1210 leukemia and the L cell cytotoxicity was determined and compared to that of adriamycin.
Donor mice were implanted with L-1210 leukemia cells i.p. On the sixth day following implant, the mice were sacrificed. Tumor cells were collected from the peritoneal cavity, suspended in saline solution, and 10^5 cells per mouse were implanted i.v. into BDF1 male mice weighing 18-20 grams. Ten mice per treatment group were employed and the day of implantation considered as day 0. A single dose of test compound was administered by i.v. injection 24 hours following the implant of L-1210 tumor cells. The animals were observed and the survival pattern was compared with that of control mice which received the same tumor implant but were not treated with drug. Results are presented as %ILS (increase in life span over control animals) in Table 3 below.

Series [2] deals with L-cells. As to the kind of experiment: L-cell cytotoxicity. The class given is cell-based. The following applies: 48 h. As for the experimental part: Expotentially growing L-cells were treated with dilutions of Compound XII and adriamycin and ID50 (concentration of compounds giving 50% inhibition of cell growth) measured after 48 hours with the following results.
For series [3] the following is noted: background; limits use; cited from earlier work.
Series [4] relates to L-1210 leukemias. Put plainly: Activity against L-1210 leukemia by oral or intraperitoneal administration. The format is in vivo.
Series [5] deals with P-388 leukemias. As to the kind of experiment: Activity against P-388 leukemia by oral or intraperitoneal administration. The class given is in vivo.
Where [6] appears, read: administered intraperitoneally, compared with intravenous.

≈ marks a conversion by molar mass, not a printed value. Like-named read-outs stand apart in the source and are kept apart here.

For `CC(=O)[C@]1(O)Cc2c(O)c3c(c(O)c2[C@@H](O[C@H]2C[C@H](N)[C@H](O)[C@H](C)O2)C1)C(=O)c1ccccc1C3=O` [4-Demethoxydaunorubicin], in series [1], the “% ILS (increase in life span over control animals)” value was found to be 83% and the “Survivors at day 60” value turned out to be 0.

Turning to `COc1cccc2c1C(=O)c1c(O)c3c(c(O)c1C2=O)C[C@@](O)(C(=O)CO)C[C@@H]3O[C@H]1C[C@H](N)[C@H](O)[C@H](C)O1` [Adriamycin], in series [1], the “% ILS (increase in life span over control animals)” value is recorded as 100% and the “Survivors at day 60” value came to 0. Besides, the IC50 in series [2] (read-out: ID50 (concentration of compounds giving 50% inhibition of cell growth), Ex. 19, exponentially growing L-cells) is 0.063 µg/mL (≈ 0.116 µM). The IC50 in series [2] (read-out: ID50 (concentration of compounds giving 50% inhibition of cell growth), Ex. 20, exponentially growing L-cells) was found to be 0.1 µg/mL (≈ 0.184 µM). For the same compound, the cardiac toxicity result in series [3] is given as “cardiac toxicity”.

With `CC(=O)[C@]1(O)Cc2c(N)c3c(c(O)c2[C@@H](O[C@H]2C[C@H](N)[C@H](O)[C@H](C)O2)C1)C(=O)c1ccccc1C3=O` [Compound XII, cis-9-acetyl-11-amino-7S-[(3-amino-2,3,6-trideoxy-α-L-lyxo-hexopyranosyl)oxy]-7,8,9,10-tetrahydro-6,9-dihydroxy-5,12-naphthacenedione chloride], in series [1], the “% ILS (increase in life span over control animals)” value was 96%. In series [1], the “Survivors at day 60” value turned out to be 0. The “activity against L-1210 leukemia” value was “less active” in series [4] (setting [6]) and “inactive” in series [4] (administered orally). For the same compound, the “activity against P-388 leukemia” value in series [5] (setting [6]) is “less active”; in series [5] (administered orally), “inactive”. Further, the IC50 in series [2] (Ex. 19, exponentially growing L-cells, read-out: ID50 (concentration of compounds giving 50% inhibition of cell growth)) is 0.01 µg/mL; in series [2] (Ex. 20, exponentially growing L-cells, read-out: ID50 (concentration of compounds giving 50% inhibition of cell growth)) it was 0.015 µg/mL.
